Experimental data: PMC8592027, “Structure-Guided Design of D-Galactal Derivatives with High Affinity and Selectivity for the Galectin-8 N-Terminal Domain” (ACS Medicinal Chemistry Letters, 2021)
“Also recorded” adds a separate entry of the source.

Assays:
[1] = system: IL-6 secretion from MDA-MB-231 cells; assay: Multiplexed cytokine assay, IL-6 secretion; format: cell-based, human; details: 24 hours, vs untreated cells
Procedure: (§1) Figure 5 Effect of compounds 1 and 6a on the secretion of IL-6 and IL-8 expressed in pg/mL. The effects were measured after incubating the cells with the compounds at 10 and 100 μM. Compounds 1 and 6a reduce the secretion of IL-6 and IL-8 in a dose-dependent manner at 100 and 10 μM. Results shown are means ± SEM of three independent experiments. ns, not significant (p > 0.05); *p < 0.05 versus untreated controls.
(§2) Metabolic activity assay: […]
(§3) Briefly, the cells were treated with the selected compounds in 0.1% dimethyl sulfoxide (DMSO; vehicle), 0.1% DMSO (control vehicle), or medium (control) and seeded at a cell density of 5,500 cells/well (MDA-MB-231 cells) or 4 x 10^4 cells/well (K562 cells), 7000 cells/well (HepG2 cells) or 1 x 10^5 cells/well (human PBMCs) in duplicates (MDA-MB-231, K562, and […]) or triplicates for HepG2 cells (100 µL), in sterile 96-well plates. For the MDA-MB-231 and HepG2, the cells were left to adhere overnight before adding the compounds. The plates were then incubated for 24 hours (48 hours for HepG2), after which 15 µL of MTS reagent was added to each well. […]
(§4) HTX Multi-Mode; BioTek Instruments, Inc., VT, USA).
(§5) Multiplexed cytokine assay:
(§6) MDA-MB-231 cells were seeded in 96-well flat-bottom plates at a density of 2 x 10^4 cells/well in 100 µL of medium and allowed to adhere for 24 hours at 37 °C and 5% CO2. The medium was then replaced by a fresh medium containing the desired concentrations of compounds 1 and 6a, after which the cells were cells incubated again for 24 hours at 37 °C and 5% CO2. Cell-free supernatants were collected and stored at – 80 °C before the analysis. The cytokines secretion was assessed by BD Cytometric Bead Array Human inflammatory cytokine Kit (content: IL-1, IL-6, IL-8, IL-10, IL-12p). The flow cytometric analyses were performed on an Attune NxT flow cytometer (Thermo Fisher Scientific, Waltham, MA, USA). Standard curves were generated using recombinant cytokines provided in the kit, and the data were analyzed with FlowJo software (Tree Star, Inc., Ashland, OR). The results are expressed in pg/mL. Data are represented as means ± standard deviation (SD) from three representative independent experiments.
(§7) All experiments were performed at least twice, with average values expressed as means ± SD. All data were analyzed with the statistical software GraphPad Prism 8.0 (GraphPad Software, Inc., CA, USA). by one-way ANOVA followed with Dunnett’s multiple compar ison test. Differences were considered non-significant for p > 0.05, and significant (*) for p < 0.05.

[2] = system: MDA-MB-231 cancer cell line; assay: MTS metabolic activity (cytotoxicity) assay, MDA-MB-231; format: cell-based, human; details: concentrations 1 to 100 μM, 24 hours
Procedure: (§8) We have investigated the cytotoxicity of the compounds 1, 6a, and 6c via a (3-(4,5-dimethylthiazol-2-yl)-5-(3-carboxymethoxyphenyl)-2-(4-sulfophenyl)-2H-tetrazolium) (MTS) assay in K562 and MDA-MB-231 cancer cell lines to establish the direct antitumor activity of compounds, as well as human peripheral blood mononuclear cells (PBMCs), to evaluate their safety.
(§9) Metabolic activity assay:
as §3, with “The metabolic activities of the cell lines were determined using the CellTiter 96 Aqueous One Solution cell proliferation assay (MTS Reagents, Promega, Madison, WI, USA), according to the manufacturer instructions. Briefly,” for “Briefly,”, “well. After 30-90 minute of incubation, the absorbance was measured at 492 nm using a microplate reader (Synergy HTX Multi-Mode; BioTek Instruments, Inc., VT, USA).” for “well.”
(§10) Bead Array Human inflammatory cytokine Kit (content: IL-1, IL-6, IL-8, IL-10, IL-12p). The flow cytometric analyses were performed on an Attune NxT flow cytometer (Thermo Fisher Scientific, […]
(§11) Data are represented as means ± standard deviation (SD) from three representative independent experiments.
(§12) All experiments were performed at least twice, with average values expressed as means ± SD. All data were analyzed with the statistical software GraphPad Prism 8.0 (GraphPad Software, Inc., CA, USA). by one-way ANOVA followed with Dunnett’s multiple compar ison test. Differences were considered non-significant for p > 0.05, and significant (*) for p < 0.05. […]

[3] = system: IL-8 secretion from MDA-MB-231 cells; assay: Multiplexed cytokine assay, IL-8 secretion; format: cell-based, human; details: 24 hours, vs untreated cells
Procedure: as §1, §2, §3, §4, §5, §6, §7

K562 cancer cell line = assay: MTS metabolic activity (cytotoxicity) assay, K562; format: cell-based; details: concentrations 1 to 100 μM, 24 hours
Procedure: as §8, §9
as §3, with “The metabolic activities of the cell lines were determined using the CellTiter 96 Aqueous One Solution cell proliferation assay (MTS Reagents, Promega, Madison, WI, USA), according to the manufacturer instructions. Briefly,” for “Briefly,”, “well. After 30-90 minute of incubation, the absorbance was measured at 492 nm using a microplate reader (Synergy HTX Multi-Mode; BioTek Instruments, Inc., VT, USA).” for “well.”
as §10, §11, §12

galectin-2 = target: T1, galectin-2 (Homo sapiens, UniProt P05162); assay: Competitive fluorescence polarization assay, galectin-2; format: binding; details: mean ± SEM of n = 4–8
T1 sequence (P05162 1-132): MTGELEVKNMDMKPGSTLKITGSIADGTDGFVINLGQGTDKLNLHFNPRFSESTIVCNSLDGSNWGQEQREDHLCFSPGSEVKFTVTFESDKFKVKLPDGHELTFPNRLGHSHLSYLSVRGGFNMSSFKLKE

galectin-7 = target: T2, galectin-7 (Homo sapiens, UniProt P47929); assay: Competitive fluorescence polarization assay, galectin-7; format: binding; details: mean ± SEM of n = 4–8
T2 construct: made in house
Procedure: (§13) 1. Competitive fluorescence polarization experiments:
(§14) Human galectins -1, -3, -4N, -4C, -7, -8N, -9N, and -9C were expressed and purified as previously described 30,41. Fluorescence polarisation experiments were performed using the PHERAstar FS plat e reader (software version 2.10 R3), and the fluorescence anisotropy of fluorescein tagged probes was measured by excitation at 485 nm and emission at 520 nm. The specific conditions for galectins -1, -3, -4N, -4C, -7, -8N, -9N, and -9C were kept as report ed30,41,42. The synthesised compounds were dissolved in pure DMSO at 20 mM concentration and diluted in PBS to 3-6 different concentrations, and each concentration was tested in duplicate. The highest inhibitor concentrations tested were 1.5 mM. The

galectin-1 = target: T3, galectin-1 (Homo sapiens, UniProt P09382); assay: Competitive fluorescence polarization assay, galectin-1; format: binding; details: mean ± SEM of n = 4–8
T3 construct: made in house
Procedure: as §13, §14

T2 sequence (P47929 whole entry): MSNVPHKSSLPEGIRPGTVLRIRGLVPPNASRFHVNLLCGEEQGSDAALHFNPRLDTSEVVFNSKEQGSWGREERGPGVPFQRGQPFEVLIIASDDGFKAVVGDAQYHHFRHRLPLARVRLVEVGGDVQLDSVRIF
T3 sequence (P09382 whole entry): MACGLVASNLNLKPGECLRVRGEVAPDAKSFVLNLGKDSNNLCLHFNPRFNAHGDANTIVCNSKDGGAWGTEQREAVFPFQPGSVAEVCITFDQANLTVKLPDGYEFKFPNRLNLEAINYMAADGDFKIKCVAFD

SMILES: Cn1c(CO[C@@H]2C=CO[C@H](CO)[C@@H]2O)nc2ccc(C(=O)O)cc21 [6a]
- reduction in IL-6 secretion ([1]; 10 μM, effect not significant): about 15%
- reduction of IL-6 secretion ([1]; 100 μM): about 65%
- cell viability (MTS), MDA-MB-231 [2]: None of the compounds decreased the viability; also recorded: no effect on the viability
- reduction in IL-8 secretion ([3]; 10 μM, effect not significant): ~20%
- reduction of IL-8 secretion ([3]; 100 μM): about 55%
- cell viability (MTS), K562 (K562 cancer cell line): None of the compounds decreased the viability
- Kd (galectin-2): 1400 ± 24 µM
- Kd (galectin-7): > 1500 µM
- Kd (galectin-1): 1300 ± 130 µM
